Holding throughout (format): functional
For one assay, the system named is Nakaseomyces glabratus. Briefly: Anti-fungal activity against Candida glabrata A28790 (WT).
Assay [1] deals with Candida albicans. The assay can be described thus: Anti-fungal activity against Candida albicans A28235 (WT).
For assay [2], the system named is Candida albicans. The assay can be described thus: Anti-fungal activity against Candida albicans A28660 (WT).

In brackets after ≈: the same amount, converted by molar mass. Where only a bound is given, the exact number is not on record here.

In the case of `CCCCCCOCC12C[C@@H]3[C@H](C)CC[C@H]3C3(C=O)CC1C=C(C(C)C)[C@@]23C(=O)O`, the MIC worked out at 0.125 µg/mL (≈ 0.3 µM) against Nakaseomyces glabratus, 0.06 µg/mL (≈ 0.144 µM) against Candida albicans [1] and 0.06 µg/mL (≈ 0.144 µM) against Candida albicans [2].

Regarding `CCCCCCOCC12CC3=C(C)CC[C@H]3C3(C=O)CC1C=C(C(C)C)[C@@]23C(=O)O`, the MIC in the assay on Nakaseomyces glabratus was 8 µg/mL (≈ 19.3 µM); in the assay on Candida albicans [1], 0.125 µg/mL (≈ 0.302 µM); in the assay on Candida albicans [2], 0.5 µg/mL (≈ 1.21 µM).

In the case of `CCCCCCOCC12C[C@@H]3[C@H](C)[C@@H](O)C[C@H]3C3(C=O)CC1C=C(C(C)C)[C@@]23C(=O)O`, the MIC against Nakaseomyces glabratus was more than 128 µg/mL; against Candida albicans [1] it was 32 µg/mL (≈ 74 µM); against Candida albicans [2], 64 µg/mL (≈ 148 µM).

With `CCCCCCOCC12C[C@@H]3[C@H](C)[C@H](F)C[C@H]3C3(C=O)CC1C=C(C(C)C)[C@@]23C(=O)O`, the figures for the MIC in the assay with Nakaseomyces glabratus, with Candida albicans [1] and with Candida albicans [2] were 1 µg/mL (≈ 2.3 µM), 0.25 µg/mL (≈ 0.575 µM) and 0.5 µg/mL (≈ 1.15 µM), respectively.

Take `CCCCCCOCC12C[C@@H]3[C@H](C)C(=O)C[C@H]3C3(C=O)CC1C=C(C(C)C)[C@@]23C(=O)O`: the minimum inhibitory concentration (MIC) against Nakaseomyces glabratus was found to be 32 µg/mL (≈ 74.3 µM); with Candida albicans [1], 4 µg/mL (≈ 9.29 µM); with Candida albicans [2], 8 µg/mL (≈ 18.6 µM).

As for `CCCCCCOCC12C[C@H]3[C@@H](CC[C@]3(C)O)C3(C=O)CC1C=C(C(C)C)[C@@]23C(=O)O`, the results for the MIC against Nakaseomyces glabratus, against Candida albicans [1] and against Candida albicans [2] were 32 µg/mL (≈ 74 µM), 4 µg/mL (≈ 9.25 µM) and 8 µg/mL (≈ 18.5 µM), respectively.

Turning to `COC1C(O)[C@H](O)[C@H](OC[C@@]23C[C@@H]4[C@H](C)CC[C@H]4[C@@]4(C=O)CC2C=C(C(C)C)[C@@]34C(=O)O)O[C@@H]1C` (single isomer, unassigned) [SORDARIN], the MIC was more than 128 µg/mL against Nakaseomyces glabratus and 16 µg/mL (≈ 32.5 µM) in the assay on Candida albicans [1].

Consider `CCCCCCOCC12C[C@@]34[C@@H](CC[C@]3(C)C4(Cl)Cl)C3(C=O)CC1C=C(C(C)C)[C@@]23C(=O)O`, for which the MIC against Nakaseomyces glabratus worked out at 64 µg/mL (≈ 129 µM); in the assay with Candida albicans [1] it was 32 µg/mL (≈ 64.3 µM); in the assay with Candida albicans [2], 32 µg/mL (≈ 64.3 µM).

For orientation: MIC means the smallest concentration in the dilution series that meets the test's criterion for growth inhibition.

These data come from ChEMBL document CHEMBL1134983, “Core-modified sordaricin derivatives: synthesis and antifungal activity” (2002).
